# pEC50: −log10 of the molar value. Where a name gives a salt, the structure may show the parent alone.
# Molecular target: T1, recombinant human 5-HT4 receptor (Homo sapiens, UniProt Q13639)
# T1 construct: expressed in transfected cells
# Test: Determination of EC50 values for 5-HT4 receptor (CHO cells, pCRE-Luc reporter)
# Type: cell-based
# Settings: luciferase reporter, 4 hours incubation, read-out: 5-HT4 receptor agonistic binding in-vitro EC50
# Method: A stable CHO cell line expressing recombinant human 5-HT4 receptor and pCRE-Luc reporter system was used for cell-based assay. The assay offers a non-radioactive based approach to determine binding of a compound to GPCRs. In this specific assay, the level of intracellular cyclic AMP, which is modulated by activation, or inhibition of the receptor is measured. The recombinant cells harbor luciferase reporter gene under the control of cAMP response element.
# The above cells were grown in 96 well clear bottom white plates in Hams F12 medium containing 10% fetal bovine serum (FBS). Prior to the addition of compounds or standard agonist, cells were serum starved overnight. Increasing concentrations of test compounds were added in OptiMEM medium to the cells. The incubation was continued at 37° C. in CO2 incubator for 4 hours. Medium was removed and cells were washed with phosphate buffered saline. The cells were lysed and luciferase activity was measured in a Luminometer. Luminescence units were plotted against the compound concentrations using Graphpad software. EC50 values of the compounds were defined as the concentration required in stimulating the luciferase activity by 50%.
# T1 sequence (Q13639 whole entry): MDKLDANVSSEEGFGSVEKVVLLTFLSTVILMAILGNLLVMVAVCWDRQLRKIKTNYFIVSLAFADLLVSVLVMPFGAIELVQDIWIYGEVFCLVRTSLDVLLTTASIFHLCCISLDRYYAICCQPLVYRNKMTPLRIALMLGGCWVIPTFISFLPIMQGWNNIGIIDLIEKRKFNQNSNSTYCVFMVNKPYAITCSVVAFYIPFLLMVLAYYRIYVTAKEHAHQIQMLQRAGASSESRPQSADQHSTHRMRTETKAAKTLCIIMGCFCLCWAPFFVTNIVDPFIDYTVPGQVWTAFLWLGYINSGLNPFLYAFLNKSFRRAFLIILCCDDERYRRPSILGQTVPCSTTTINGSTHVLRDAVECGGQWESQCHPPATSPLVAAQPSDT
row,SMILES,pEC50
1,"CCn1cc2cccc(C(=O)NCC3CCN(CCCOC)CC3)c2n1 [Example 4, N—[N-(3-methoxypropyl)piperidin-4-ylmethyl]-2-ethyl-2H-indazole-7-carboxamide fumarate]",≥ 9.00
2,"CCn1cc2cccc(C(=O)NCC3C4CN(CCCOC)CC34)c2n1 (centres unmarked) [Example 5, N—[N-(3-methoxypropyl)-3-azabicyclo[3.1.0]hexane-6-ylmethyl]-2-ethyl-2H-indazole-7-carboxamide oxalate]",8.30 to 8.96
3,"CC(C)n1cc2cccc(C(=O)NCC3CCN(CC(C)(C)CO)CC3)c2n1 [Example 6, N—[N-(3-hydroxy-2,2-dimethylpropyl)piperidin-4-ylmethyl]-2-isopropyl-2H-indazole-7-carboxamide L(+) Tartarate]",≥ 9.00
4,"CC(C)n1cc2cccc(C(=O)NCC3CCN(CCF)CC3)c2n1 [Example 7, N—[N-(2-fluoroethyl)piperidin-4-ylmethyl]-2-isopropyl-2H-indazole-7-carboxamide]",7.70 to 8.29
5,"CC(C)n1cc2cccc(C(=O)NCC3CN(Cc4ccccc4)CCO3)c2n1 (centres unmarked) [Example 8, N—[N-benzylmorpholin-2-ylmethyl]-2-isopropyl-2H-indazole-7-carboxamide fumarate]",7.30 to 7.70
6,"CC(C)n1cc2cccc(C(=O)NCC3CN(CC4CCOCC4)CCO3)c2n1 (centres unmarked) [Example 9, N—[(N-tetrahydropyran-4-ylmethyl)morpholine-2-ylmethyl]-2-isopropyl-2H-indazole-7-carboxamide]",7.70 to 8.29
7,"CC(C)n1cc2cccc(C(=O)NCC3C4CN(CC5CCOCC5)CC34)c2n1 (centres unmarked) [Example 10, N—[N-(tetrahydropyran-4-ylmethyl)-3-azabicyclo[3.1.0]hexane-6-ylmethyl]-2-isopropyl-2H-indazole-7-carboxamide]",8.30 to 8.96
8,"CC(C)n1cc2cccc(C(=O)NCC3CCN(CC4(O)CCCC4)CC3)c2n1 [Example 11, N—[N-(1-hydroxycyclopentylmethyl)piperidin-4-ylmethyl]-2-isopropyl-2H-indazole-7-carboxamide L(+) tartarate]",≥ 9.00
9,"CC(C)n1cc2cccc(C(=O)NCC3C4CN(C5CCOCC5)CC34)c2n1 (centres unmarked) [Example 12, N—[N-(tetrahydropyran-4-yl)-3-azabicyclo[3.1.0]hexane-6-ylmethyl]-2-isopropyl-2H-indazole-7-carboxamide]",8.30 to 8.96
10,"CC(C)N1CCC(CNC(=O)c2cccc3cn(C(C)C)nc23)CC1 [Example 13, N—(N-isopropylpiperidin-4-ylmethyl)-2-isopropyl-2H-indazole-7-carboxamide fumarate]",≥ 9.00
11,"CC(C)n1cc2cccc(C(=O)NCC3CCN(C4CCC4)CC3)c2n1 [Example 14, N—(N-cyclobutylpiperidin-4-ylmethyl)-2-isopropyl-2H-indazole-7-carboxamide fumarate]",≥ 9.00
12,"CC(C)n1cc2cccc(C(=O)NCC3CCN(C4CCCCC4)CC3)c2n1 [Example 15, N—(N-cyclohexylpiperidin-4-ylmethyl)-2-isopropyl-2H-indazole-7-carboxamide fumarate]",≥ 9.00
13,"CC(C)N1CC2C(CNC(=O)c3cccc4cn(C(C)C)nc34)C2C1 (centres unmarked) [Example 16, N—(N-isopropyl-3-azabicyclo[3.1.0]hexane-6-ylmethyl)-2-isopropyl-2H-indazole-7-carboxamide fumarate]",8.30 to 8.96
14,"CC(C)n1cc2cccc(C(=O)NCC3CCN(CC4(O)CCOCC4)CC3)c2n1 [Example 17, N—[N-(4-hydroxytetrahydropyran-4-ylmethyl)piperidin-4-ylmethyl]-2-isopropyl-2H-indazole-7-carboxamide fumarate]",≥ 9.00
15,"CCn1cc2cccc(C(=O)NCC3C4CN(C5CCOCC5)CC34)c2n1 (centres unmarked) [Example 18, N—[N-(tetrahydropyran-4-yl)-3-azabicyclo[3.1.0]hexane-6-ylmethyl]-2-ethyl-2H-indazole-7-carboxamide oxalate]",7.70 to 8.29
16,"CC(C)N1CCC(NC(=O)c2cccc3cn(C(C)C)nc23)CC1 [Example 19, N—(N-isopropylpiperidine-4-yl)-2-isopropyl-2H-indazole-7-carboxamide fumarate]",7.30 to 7.70
17,"CC(C)n1cc2cccc(C(=O)NC3CCN(CC4CC4)CC3)c2n1 [Example 20, N—(N-cyclopropylmethylpiperidine-4-yl)-2-isopropyl-2H-indazole-7-carboxamide fumarate]",7.70 to 8.29
18,"CC(C)n1cc2cccc(C(=O)NC3CCN(CC4CCC4)CC3)c2n1 [Example 21, N—(N-cyclobutylmethylpiperidine-4-yl)-2-isopropyl-2H-indazole-7-carboxamide fumarate]",7.70 to 8.29

# Next, values leading:
row,pEC50,SMILES
1,8.30 to 8.96,"CC(C)n1cc2cccc(C(=O)NCC3(F)CCN(CC4CCOCC4)CC3)c2n1 [Example 22, N—[(N-tetrahydropyran-4-ylmethyl)-4-fluoropiperidin-4-ylmethyl]-2-isopropyl-2H-indazole-7-carboxamide]"
2,≥ 9.00,"CC(C)n1cc2cccc(C(=O)NCC3CCN(CC4CCOC4)CC3)c2n1 (centres unmarked) [Example 23, N—[(N-tetrahydrofuran-3-ylmethyl)piperidin-4-ylmethyl]-2-isopropyl-2H-indazole-7-carboxamide]"
3,≥ 9.00,"COCCCN1CCC(CNC(=O)c2cccc3cn(C(C)C)nc23)CC1 [Example 24, N—[N-(3-methoxypropyl)piperidin-4-ylmethyl]-2-isopropyl-2H-indazole-7-carboxamide fumarate]"
4,8.30 to 8.96,"COCCN1CCC(CNC(=O)c2cccc3cn(C(C)C)nc23)CC1 [Example 25, N—[N-(2-methoxyethyl)piperidin-4-ylmethyl]-2-isopropyl-2H-indazole-7-carboxamide fumarate]"
5,8.30 to 8.96,"CC(C)n1cc2cccc(C(=O)NCC3(O)CCN(CC4CCOCC4)CC3)c2n1 [Example 26, N—[(N-tetrahydropyran-4-ylmethyl)-4-hydroxypiperidin-4-ylmethyl]-2-isopropyl-2H-indazole-7-carboxamide fumarate]"
6,8.30 to 8.96,"CC(C)n1cc2cccc(C(=O)NCC3(O)CCN(C4CCOCC4)CC3)c2n1 [Example 27, N—[(N-tetrahydropyran-4-yl)-4-hydroxypiperidin-4-ylmethyl]-2-isopropyl-2H-indazole-7-carboxamide fumarate]"
7,8.30 to 8.96,"COCCCN1CCC(O)(CNC(=O)c2cccc3cn(C(C)C)nc23)CC1 [Example 28, N—[N-(3-methoxypropyl)-4-hydroxypiperidin-4-ylmethyl]-2-isopropyl-2H-indazole-7-carboxamide fumarate]"
8,≥ 9.00,"CC(C)n1cc2cccc(C(=O)NCC3CCN(CCC(C)(C)O)CC3)c2n1 [Example 29, N—[N-(3-Hydroxy-3-methylbutyl)piperidin-4-ylmethyl]-2-isopropyl-2H-indazole-7-carboxamide]"
9,8.30 to 8.96,"CC(C)n1cc2cccc(C(=O)NCC3(O)CCN(CC(C)(C)O)CC3)c2n1 [Example 30, N—[N-(2-hydroxy-2-methylpropyl)-4-hydroxypiperidin-4-ylmethyl]-2-isopropyl-2H-indazole-7-carboxamide oxalate]"
10,8.30 to 8.96,"CC(C)n1cc2cccc(C(=O)NCC3(F)CCN(CC4(O)CCOCC4)CC3)c2n1 [Example 31, N—[N-(4-hydroxytetrahydropyran-4-ylmethyl)-4-fluoropiperidin-4-ylmethyl]-2-isopropyl-2H-indazole-7-carboxamide L(+) Tartarate]"
11,≥ 9.00,"COC(C)(C)CN1CCC(CNC(=O)c2cccc3cn(C(C)C)nc23)CC1 [Example 33, N—[N-(2-Methoxy-2-methylpropyl)piperidin-4-ylmethyl]-2-isopropyl-2H-indazole-7-carboxamide]"
12,≥ 9.00,"CC(C)n1cc2cccc(C(=O)NCC3CCN(CC(C)(C)F)CC3)c2n1 [Example 34, N—[N-(2-fluoro-2-methylpropyl)piperidin-4-ylmethyl]-2-isopropyl-2H-indazole-7-carboxamide L(+) Tartarate]"
13,7.70 to 8.29,"CC(C)n1cc2cccc(C(=O)NCC3(F)CCN(CC(C)(C)O)CC3)c2n1 [Example 35, N—[N-(2-hydroxy-2-methylpropyl)-4-fluoropiperidin-4-ylmethyl]-2-isopropyl-2H-indazole-7-carboxamide L(+) Tartarate]"
14,7.70 to 8.29,"CC(C)n1cc2cccc(C(=O)NCC3C4CN(CC(C)(C)O)CC34)c2n1 (stereo not drawn) [Example 36, N—[N-(2-hydroxy-2-methylpropyl)-3-azabicyclo[3.1.0]hexane-6-ylmethyl]-2-isopropyl-2H-indazole-7-carboxamide L(+) Tartarate]"
15,7.70 to 8.29,"COCCCN1CCC(c2nnc(-c3cccc4cn(C(C)C)nc34)o2)CC1 [Example 37, 2-isopropyl-7-{5-[1-(3-methoxypropyl)piperidin-4-yl]-[1,3,4]oxadiazol-2-yl)}-2H-indazole fumarate]"
16,7.70 to 8.29,"CC(C)n1cc2cccc(-c3nnc(C4CCN(CC5CCOCC5)CC4)o3)c2n1 [Example 38, 2-Isopropyl-7-{5-[1-(tetrahydropyran-4-ylmethyl)piperidin-4-yl]-[1,3,4]oxadiazol-2-yl}-2H-indazole fumarate]"
17,8.30 to 8.96,"CC(C)n1cc2cccc(-c3nnc(C4CCN(C5CCOCC5)CC4)o3)c2n1 [Example 39, 2-Isopropyl-7-{5-[1-(tetrahydropyran-4-yl)piperidin-4-yl]-[1,3,4]oxadiazol-2-yl}-2H-indazole fumarate]"

# From patent US9951045B2, “Indazole compounds as 5-HT4 receptor agonists” (SUVEN LIFE SCIENCES LIMITED, priority 2013, dated 2018)
